Experiments:
Assay in all cases: relative viability (nuclei count vs DMSO), 5 days (fraction); higher = more cells survive
[1] = system: 201T
Procedure, shortened: (§1)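 Dosing by pin tool came one day after lung cancer cell lines were seeded in 1536-well plates, using either one drug or a fixed anchor-drug dose plus five library-drug doses (not always all listed) in √10 steps. After 5 days, nuclei were counted on 4× images. Relative viability is treated-well nuclei count divided by vehicle-well nuclei count, and values are medians of duplicate plates.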

[2] = system: COR-L 105
Procedure, shortened: as §1

[3] = system: COR-L23
Procedure, shortened: as §1

[4] = system: EMC-BAC-2
Procedure, shortened: as §1

[5] = system: HCC-15
Procedure, shortened: as §1

[6] = system: HCC-366
Procedure, shortened: as §1

[7] = system: LC-2-ad
Procedure, shortened: as §1

[8] = system: NCI-H1395
Procedure, shortened: as §1

[9] = system: NCI-H1437
Procedure, shortened: as §1

[10] = system: NCI-H1755
Procedure, shortened: as §1

[11] = system: NCI-H1792
Procedure, shortened: as §1

[12] = system: NCI-H1793
Procedure, shortened: as §1

[13] = system: NCI-H1915
Procedure, shortened: as §1

[14] = system: NCI-H2009
Procedure, shortened: as §1

[15] = system: NCI-H2023
Procedure, shortened: as §1

[16] = system: NCI-H2342
Procedure, shortened: as §1

[17] = system: NCI-H2347
Procedure, shortened: as §1

[18] = system: NCI-H23
Procedure, shortened: as §1

[19] = system: NCI-H358
Procedure, shortened: as §1

[20] = system: NCI-H650
Procedure, shortened: as §1

[21] = system: PC-14
Procedure, shortened: as §1

[22] = system: SK-MES-1
Procedure, shortened: as §1

Compound: CN1CCN(CCOc2cc(OC3CCOCC3)c3c(Nc4c(Cl)ccc5c4OCO5)ncnc3c2)CC1 [Saracatinib] + Nc1nc2[nH]cc(CCc3ccc(C(=O)N[C@@H](CCC(=O)O)C(=O)O)cc3)c2c(=O)[nH]1 [Pemetrexed] (partner 0.2 µM)
- relative viability ([1]; first compound 0.02 µM): 0.312
- relative viability ([1]; first compound 0.2 µM): 0.337
- relative viability ([1]; first compound 0.6325 µM): 0.341
- relative viability ([1]; first compound 2 µM): 0.336
- relative viability ([2]; first compound 0.02 µM): 1.2
- relative viability ([2]; first compound 0.2 µM): 1.21
- relative viability ([2]; first compound 0.6325 µM): 1.26
- relative viability ([2]; first compound 2 µM): 0.717
- relative viability ([3]; first compound 0.02 µM): 0.211
- relative viability ([3]; first compound 0.2 µM): 0.2
- relative viability ([3]; first compound 0.6325 µM): 0.176
- relative viability ([3]; first compound 2 µM): 0.184
- relative viability ([4]; first compound 0.02 µM): 0.456
- relative viability ([4]; first compound 0.2 µM): 0.373
- relative viability ([4]; first compound 0.6325 µM): 0.44
- relative viability ([4]; first compound 2 µM): 0.442
- relative viability ([5]; first compound 0.02 µM): 0.213
- relative viability ([5]; first compound 0.2 µM): 0.225
- relative viability ([5]; first compound 0.6325 µM): 0.219
- relative viability ([5]; first compound 2 µM): 0.222
- relative viability ([6]; first compound 0.02 µM): 0.162
- relative viability ([6]; first compound 0.2 µM): 0.17
- relative viability ([6]; first compound 0.6325 µM): 0.189
- relative viability ([6]; first compound 2 µM): 0.17
- relative viability ([7]; first compound 0.02 µM): 0.286
- relative viability ([7]; first compound 0.2 µM): 0.282
- relative viability ([7]; first compound 0.6325 µM): 0.268
- relative viability ([7]; first compound 2 µM): 0.27
- relative viability ([8]; first compound 0.02 µM): 0.896
- relative viability ([8]; first compound 0.2 µM): 0.769
- relative viability ([8]; first compound 0.6325 µM): 0.846
- relative viability ([8]; first compound 2 µM): 0.612
- relative viability ([9]; first compound 0.02 µM): 0.329
- relative viability ([9]; first compound 0.2 µM): 0.247
- relative viability ([9]; first compound 0.6325 µM): 0.277
- relative viability ([9]; first compound 2 µM): 0.286
- relative viability ([10]; first compound 0.02 µM): 0.465
- relative viability ([10]; first compound 0.2 µM): 0.409
- relative viability ([10]; first compound 0.6325 µM): 0.424
- relative viability ([10]; first compound 2 µM): 0.394
- relative viability ([11]; first compound 0.02 µM): 1.06
- relative viability ([11]; first compound 0.2 µM): 0.644
- relative viability ([11]; first compound 0.6325 µM): 1.12
- relative viability ([11]; first compound 2 µM): 0.788
- relative viability ([12]; first compound 0.02 µM): 0.947
- relative viability ([12]; first compound 0.2 µM): 0.766
- relative viability ([12]; first compound 0.6325 µM): 0.743
- relative viability ([12]; first compound 2 µM): 0.568
- relative viability ([13]; first compound 0.02 µM): 0.477
- relative viability ([13]; first compound 0.2 µM): 0.4
- relative viability ([13]; first compound 0.6325 µM): 0.501
- relative viability ([13]; first compound 2 µM): 0.481
- relative viability ([14]; first compound 0.02 µM): 1.01
- relative viability ([14]; first compound 0.2 µM): 0.962
- relative viability ([14]; first compound 0.6325 µM): 0.993
- relative viability ([14]; first compound 2 µM): 1.05
- relative viability ([15]; first compound 0.02 µM): 0.229
- relative viability ([15]; first compound 0.2 µM): 0.189
- relative viability ([15]; first compound 0.6325 µM): 0.202
- relative viability ([15]; first compound 2 µM): 0.191
- relative viability ([16]; first compound 0.02 µM): 0.83
- relative viability ([16]; first compound 0.2 µM): 0.673
- relative viability ([16]; first compound 0.6325 µM): 0.789
- relative viability ([16]; first compound 2 µM): 0.84
- relative viability ([17]; first compound 0.02 µM): 0.435
- relative viability ([17]; first compound 0.2 µM): 0.421
- relative viability ([17]; first compound 0.6325 µM): 0.464
- relative viability ([17]; first compound 2 µM): 0.429
- relative viability ([18]; first compound 0.02 µM): 0.683
- relative viability ([18]; first compound 0.6325 µM): 0.613
- relative viability ([18]; first compound 2 µM): 0.519
- relative viability ([19]; first compound 0.02 µM): 0.193
- relative viability ([19]; first compound 0.2 µM): 0.166
- relative viability ([19]; first compound 0.6325 µM): 0.156
- relative viability ([19]; first compound 2 µM): 0.151
- relative viability ([20]; first compound 0.02 µM): 0.962
- relative viability ([20]; first compound 0.2 µM): 0.903
- relative viability ([20]; first compound 0.6325 µM): 0.884
- relative viability ([20]; first compound 2 µM): 0.874
- relative viability ([21]; first compound 0.02 µM): 0.133
- relative viability ([21]; first compound 0.2 µM): 0.114
- relative viability ([21]; first compound 0.6325 µM): 0.118
- relative viability ([21]; first compound 2 µM): 0.111
- relative viability ([22]; first compound 0.02 µM): 0.923
- relative viability ([22]; first compound 0.2 µM): 0.905
- relative viability ([22]; first compound 0.6325 µM): 0.886
- relative viability ([22]; first compound 2 µM): 0.466

— the supplement of paper PMC10307832
